Source: the NIST ThermoML archive (doi:10.1016/j.fluid.2015.12.007)
Numbers after ± are expanded uncertainties.

Conditions: 101.33 kPa, Liquid; for speed of sound: Sing-around technique in a fixed-path interferometer; for mass density: Vibrating tube method

SMILES | speed of sound (293.15 K) [m/s] | mass density (293.15 K) [kg/m3] | speed of sound (298.15 K) [m/s] | mass density (298.15 K) [kg/m3] | speed of sound (303.15 K) [m/s] | mass density (303.15 K) [kg/m3] | speed of sound (308.15 K) [m/s] | mass density (308.15 K) [kg/m3] | speed of sound (313.15 K) [m/s] | mass density (313.15 K) [kg/m3] | speed of sound (318.15 K) [m/s] | mass density (318.15 K) [kg/m3]
CCCCn1cc[n+](C)c1.F[B-](F)(F)F [1-butyl-3-methylimidazolium tetrafluoroborate] | 1576.6 ± 1.2 | 1204.89 ± 0.15 | 1564.9 ± 1.2 | 1201.33 ± 0.15 | 1553.6 ± 1.2 | 1197.78 ± 0.15 | 1542.2 ± 1.2 | 1194.23 ± 0.15 | 1530.9 ± 1.2 | 1190.7 ± 0.15 | 1520 ± 1.2 | 1187.18 ± 0.15
CC(O)CO (stereo not drawn) [1,2-propanediol] | 1516.4 ± 1.3 | 1035.73 ± 0.14 | 1505.9 ± 1.3 | 1032.03 ± 0.13 | 1493.3 ± 1.3 | 1028.31 ± 0.13 | 1480 ± 1.3 | 1024.55 ± 0.13 | 1466.3 ± 1.3 | 1020.75 ± 0.13 | 1452.7 ± 1.3 | 1016.92 ± 0.13
CCCCn1cc[n+](C)c1.COS(=O)(=O)[O-] [1-butyl-3-methylimidazolium methyl sulfate] | 1669.8 ± 3.2 | 1211.97 ± 2.8 | 1657.1 ± 3.2 | 1208.61 ± 2.8 | 1644.6 ± 3.2 | 1205.25 ± 2.8 | 1632.4 ± 3.2 | 1201.89 ± 2.8 | 1620.4 ± 3.2 | 1198.54 ± 2.8 | 1608.8 ± 3.2 | 1195.2 ± 2.8
CCCC[n+]1ccn(C)c1.O=S(=O)([N-]S(=O)(=O)C(F)(F)F)C(F)(F)F | 1238.6 ± 1.2 | 1440.81 ± 0.23 | 1227.4 ± 1.2 | 1435.99 ± 0.23 | 1216.3 ± 1.2 | 1431.2 ± 0.22 | 1205.4 ± 1.2 | 1426.42 ± 0.22 | 1194.7 ± 1.2 | 1421.66 ± 0.22 | 1184.1 ± 1.2 | 1416.91 ± 0.22
